Patent US8859628B2, “Method for preventing, treating and diagnosing disorders of protein aggregation” (priority 2003, dated 2014)
Entries after “also recorded” stand apart in the source; their conditions may differ. One block for each compound: values may come before it.

Columns and labels:
amyloid-beta peptide = conditions: cited from earlier work
TgCRND8 mice [1] = assay: Morris Water Maze, spatial reference memory version, five-day trial paradigm (prevention study); assay type: in vivo, mouse; conditions: 6 months of age
Protocol: Age and sex-matched cohorts of TgCRND8 mice and non-transgenic littermates (n=35 in each cohort) were either untreated, or were given a compound of the present invention as indicated below at 30 mg/day/mouse beginning at age of about 6 weeks. The mice were followed for outcome measures cognitive function, brain Aβ levels, brain pathology, and survival at 4 months and 6 months of age.
Two cohorts entered the study at 6 weeks of age and outcomes were analyzed at 4- and 6-months of age. The body weight, coat characteristics and in cage behavior was monitored. All experiments were performed according to the Canadian Council on Animal Care guidelines.
(§1) Behavioral tests—After non-spatial pre-training, mice underwent place discrimination training for 5 days with 4 trials per day. Behavioral data was analyzed using a mixed model of factorial analysis of variance (ANOVA) with drug or genotype and training sessions as repeated measure factors.
The cognitive function of TgCRND8 mice was assessed using the spatial reference memory version of the Morris Water Maze using a five-day trial paradigm (FIGS. 1C-1H). […] The improved performance was also not due to nutritional or caloric effects because body weight, activity, and coat condition were not different between treated and untreated cohorts. […] Gender effects were not significant between any treatment group (p=0.85).

TgCRND8 mice [2] = assay: Cerebral amyloid plaque burden (anti-Aβ immunostaining, image analysis); assay type: in vivo, mouse; conditions: for amyloid/plaque burden vs untreated (words) / mean plaque size: prevention
Protocol: (§2) Cerebral amyloid burden—Brains were removed and one hemisphere was fixed in 4% paraformaldehyde and embedded in paraffin wax in the mid saggital plane. To generate sets of systematic uniform random sections, 5 μm serial sections were collected across the entire hemisphere. Sets of sections at […] intervals were used for analyses (10-14 sections/set). Plaque were identified after antigen retrieval with formic acid, and incubated with primary anti-Aβ antibody (Dako M-0872), followed by secondary antibody (Dako StreptABCcomplex/horseradish kit). End products were visualized with DAB counter-stained with hematoxylin. Amyloid plaque burden was assessed using Leco IA-3001 image analysis software interfaced with Leica microscope and Hitachi KP-M1U CCD video camera. Vascular burden was analyzed similarly and a dissector was used to measure the diameter of affected vessels.
as §2, with “camera.” for “camera. Vascular burden was analyzed similarly and a dissector was used to measure the diameter of affected vessels.”

TgCRND8 mice [3] = assay: Survival census (Kaplan-Meier); assay type: in vivo, mouse; conditions: vs untreated TgCRND8
Protocol: Survival Census—The probability of survival was assessed by the Kaplan-Meier technique, computing the probability of survival at every occurrence of death, thus making it suitable for small sample sizes. For the analyses of survival, 35 mice were used for each treatment group. The comparison between treatments was reported using the Tarone-Ware test.

non-Tg littermates = assay: Morris Water Maze performance of treated non-Tg littermates; assay type: in vivo, mouse; conditions: treated vs untreated non-Tg
Protocol: as §1
(§3) Behavioral Test—Reversal Study—Mice entered the Morris water maze test with a hidden platform on day one without pretraining. Mice were tested for 3 days with six trials per day. On the fourth day, the platform was removed from the pool and each mouse received one 30-s swim probe trial. On the last day the animals underwent a cue test in order to evaluate swimming ability, eye sight and general cognition. The cue test is composed at the platform being placed in a different quadrant than that used for testing and is tagged with a flag. Animals are allowed 60 s to find the platform. […] Behavioural data was analysed using a mixed model of factorial analysis of variance (ANOVA) with drug or genotype and training sessions as repeated measure factors.

TgCRND8 mice [4] = assay: Cerebral Aβ content (Aβ40 and Aβ42 kits on hemi-brain homogenates); assay type: in vivo, mouse; parameters: Total Aβ: unit not given here
Protocol: (§4) Plasma and Cerebral Aβ Content—Hemi-brain samples were homogenized in a buffered sucrose solution, followed by either 0.4% diethylamine/100 mM NaCl for soluble Aβ levels or cold formic acid for the isolation of total Aβ. After neutralization the samples were diluted and analyzed for Aβ40 and Aβ42 using commercially available kits (BIOSOURCE International). Each hemisphere was analyzed in triplicate with the mean±SEM reported. Western blot analyses were performed on all fractions using urea gels for Aβ species analyses. Aβ was detected using 6E10 (BIOSOURCE International) and Enhanced Chemiluminenscence (Amersham).
as §4, with “reported.” for “reported. Western blot analyses were performed on all fractions using urea gels for Aβ species analyses. Aβ was detected using 6E10 (BIOSOURCE International) and Enhanced Chemiluminenscence (Amersham).”

TgCRND8 mice [5] = assay: Plasma Aβ levels; assay type: in vivo, mouse
Protocol: as §4
as §4, with “reported.” for “reported. Western blot analyses were performed on all fractions using urea gels for Aβ species analyses. Aβ was detected using 6E10 (BIOSOURCE International) and Enhanced Chemiluminenscence (Amersham).”

TgCRND8 mice [6] = assay: Morris Water Maze, spatial reference memory version, three-day trial paradigm (treatment/reversal study); assay type: in vivo, mouse; conditions: for cognitive function, treated TgCRND8 mice vs non-Tg littermates (words): 1 month treatment from 5 months of age, three-day paradigm
Protocol: A cohort entered the study at 5 months of age and outcomes were analyzed at 6-months of age. The body weight, coat characteristics and in cage behavior was monitored. All experiments were performed according to the Canadian Council on Animal Care guidelines.
as §3
The cognitive function of TgCRND8 mice was assessed using the spatial reference memory version of the Morris Water Maze using a three day trial paradigm (FIGS. 4-8).
Behavioural data was analysed using a mixed model of factorial analysis of variance (ANOVA) with drug and genotype as between subject variables and training sessions as within subject variable.
(§5) In these experiments, the dosage and oral administration of compounds, and the behavioral and neurochemical assays were the same as those employed in the above treatment experiments.

TgCRND8 mice [7] = conditions: mouse, in vivo
Text: Animals were sacrificed after one month of treatment and analysed for pathological outcomes.
as §5

TgCRND8 mice [8] = assay: Gliosis quantitation (GFAP astrocytes, CD68 microglia); assay type: in vivo, mouse; conditions: prevention
Text: Gliosis Quantitation—Five randomly selected, evenly spaced, sagittal sections were collected from paraformaldehyde-fixed and frozen hemispheres of treated and control mice. Sections were immunolabelled for astrocytes with anti-rat GFAP IgG2a (Dako; diluted 1:50) and for microglia with anti-rat CD68 IgG2b (Dako; 1:50).
Serial sagittal sections were stained with the astrocytic marker glial fibrillary acidic protein (GFAP) and quantitated for percent brain area covered by astrogliosis.

TgCRND8 mice [9] = assay: Vascular amyloid burden; assay type: in vivo, mouse; conditions: prevention, 6 months of age
Protocol: as §2
Alzheimer's disease is characterized by the presence of both parenchymal and vascular amyloid deposits. In untreated 6 month old TgCRND8 mice approximately 0.03% of the brain area is associated with vascular amyloid.

Aβ42 = target: T1, Aβ42 (Homo sapiens, UniProt P05067); conditions: cited from earlier work
T1 construct: The importance of residues 1-42 (Aβ42) in Alzheimer's disease was highlighted

[10] = 28 days treatment from 5 months of age
[11] = 1 month treatment from 5 months of age
[12] = 1 month treatment, 30 mg/mouse/day from 5 months, analyzed at 6 months of age
[13] = 4 month prevention, 30 mg/mouse/day from 6 weeks of age
[14] = 6 month prevention, 30 mg/mouse/day from 6 weeks of age

T1 sequence (P05067 672-713 limits assumed): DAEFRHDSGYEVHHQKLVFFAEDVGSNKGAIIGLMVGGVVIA

SMILES: O=P(O)(O)O[C@@H]1[C@H](O)[C@H](O)[C@@H](OP(=O)(O)O)[C@H](OP(=O)(O)O)[C@H]1O [inositol-1,4,5-triphosphate]
- ability to inhibit amyloid-beta peptide fibrillogenesis (amyloid-beta peptide): found not to be effective

SMILES: OC[C@@H](O)[C@@H](O)[C@H](O)[C@H](O)CO [mannitol, reference compound]
- cognitive function, treated TgCRND8 mice vs non-Tg littermates (words) (TgCRND8 mice [1]): significantly different from mannitol treated non-Tg littermates
- cognitive function, treated vs untreated TgCRND8 mice (words) (TgCRND8 mice [1]): had no effect on behavior; also recorded: indistinguishable from untreated TgCRND8 mice
- cognitive function, treated vs untreated TgCRND8 mice (words) (TgCRND8 mice [1]; listed as Mannitol): not significantly different from untreated TgCRND8 mice
- amyloid/plaque burden vs untreated (words) (TgCRND8 mice [2]; 6 months of age): did not alter the plaque load in TgCRND8 mice
- amyloid/plaque burden vs untreated (words) (TgCRND8 mice [2]; 6 months of age, listed as Mannitol): indistinguishable from untreated TgCRND8 mice when plaque count was used as a measure of total plaque burden
- effect on survival of TgCRND8 mice (TgCRND8 mice [3]): had no effect on the survival of TgCRND8 mice; also recorded: not significantly different
- effect on performance of non-Tg mice (non-Tg littermates): had no effect on the behaviour of non-Tg mice

SMILES: O=P(O)(O)O[C@H]1[C@H](O)[C@@H](O)[C@H](OP(=O)(O)O)[C@@H](O)[C@H]1O [inositol-1,4-bisphosphate]
- ability to inhibit amyloid-beta peptide fibrillogenesis (amyloid-beta peptide): found not to be effective

- ALP (TgCRND8 mice [7]; po): 95 ± 16 U/L
- Albumin (TgCRND8 mice [7]; po): 32 ± 2 g/L
- Bilirubin (TgCRND8 mice [7]; po): 2.9 ± 3 µmol/L
- Creatinine (TgCRND8 mice [7]; po): 69 ± 64 µmol/L
- Globulin (TgCRND8 mice [7]; po): 17 ± 3 g/L
- Glucose (TgCRND8 mice [7]; po): 10 ± 3 mmol/L
- Icteria (TgCRND8 mice [7]; po): Normal
- Lipemia (TgCRND8 mice [7]; po): Normal
- Total protein (TgCRND8 mice [7]; po): 48 ± 2 g/L
- Urea (TgCRND8 mice [7]; po): 18.6 ± 13 mmol/L
SMILES: OC1C(O)C(O)C(O)C(O)C1O (stereo not drawn) [Allo-inositol, allo-inositol]
- effect on insoluble Aβ42 or Aβ40 (soluble and insoluble pools) (TgCRND8 mice [4]; [10]): did not significantly alter
- reduction of soluble Aβ42 (TgCRND8 mice [4]; [10]): 20%
- Brain Aβ42 Insoluble (TgCRND8 mice [4]; allo-inositol study: 1 month treatment (28 days) from 5 months of age, mean ± sem): 16336 ± 910 ng/gm wet brain
- effect on plasma Aβ levels in comparison to untreated (words) (TgCRND8 mice [5]; 1 month treatment from 5 months of age, listed as allo-inositol): indistinguishable from untreated TgCRND8 plasma levels
- Plasma Aβ Levels (TgCRND8 mice [5]; allo-inositol study: 1 month treatment (28 days) from 5 months of age): 2458 ± 95 pg/mL
- cognitive function, treated TgCRND8 mice vs non-Tg littermates (words) (TgCRND8 mice [6]; listed as allo-inositol): still significantly different from that of their non-transgenic littermates
- cognitive function, treated vs untreated TgCRND8 mice (words) (TgCRND8 mice [6]; [10]): performed significantly better than untreated TgCRND8 mice
- effects on blood chemistry or organ function (TgCRND8 mice [7]): do not exhibit obvious deleterious effects on blood chemistry or organ function
- ALT (TgCRND8 mice [7]; po): 44 ± 4 U/L

SMILES: OC1C(O)C(O)C(O)C(O)C1O (stereo not drawn) [Epi-Inositol, epi-inositol]
- cognitive function, treated vs untreated TgCRND8 mice (words) (TgCRND8 mice [1]): performed significantly better than untreated TgCRND8 mice
- Aβ load vs untreated (TgCRND8 mice [4]; [11]): Aβ load was significantly decreased
- Total Aβ (TgCRND8 mice [4]; [12]): 17271 ± 415
- Total Aβ (TgCRND8 mice [4]; [13]): 4802 ± 176
- Total Aβ (TgCRND8 mice [4]; [14]): 18464 ± 229
- brain Aβ levels compared with untreated (TgCRND8 mice [4]; prevention, 6 months of age): rose to levels similar to those observed in untreated TgCRND8 mice
- Plasma Aβ Levels (TgCRND8 mice [5]; 1 month treatment): 2158 ± 157 pg/mL
- effect on plasma Aβ levels in comparison to untreated (words) (TgCRND8 mice [5]; 1 month treatment from 5 months of age, listed as epi-inositol): Neither myo-inositol, epi-inositol nor scyllo-inositol treatment had any effect on plasma Aβ levels
- Plasma Aβ Levels (TgCRND8 mice [5]; 4 month prevention): 1082 ± 164 pg/mL
- Plasma Aβ Levels (TgCRND8 mice [5]; 6 month prevention): 952 ± 56 pg/mL
- effect on plasma Aβ levels in comparison to untreated (words) (TgCRND8 mice [5]; prevention, 4- and 6-months of age): Neither epi-inositol nor scyllo-inositol treatment had any effect on plasma Aβ levels
- plaque burden vs untreated (TgCRND8 mice [2]; [11]): not a significant decrease in the mean plaque size
- Plaque Area (TgCRND8 mice [2]; [12]): 459706 ± 49966 μm^2
- Plaque Count (TgCRND8 mice [2]; [12]): 1342 ± 114
- Total Plaque Area/Total Brain Area (TgCRND8 mice [2]; [12]): 0.134 ± 0.017%
- Plaque Area (TgCRND8 mice [2]; [13]): 65042 ± 5199 μm^2
- Plaque Count (TgCRND8 mice [2]; [13]): 678 ± 64
- Total Plaque Area/Total Brain Area (TgCRND8 mice [2]; [13]): 0.020 ± 0.001%
- Plaque Area (TgCRND8 mice [2]; [14]): 380456 ± 13498 μm^2
- Plaque Count (TgCRND8 mice [2]; [14]): 979 ± 32
- Total Plaque Area/Total Brain Area (TgCRND8 mice [2]; [14]): 0.096 ± 0.04%
- amyloid/plaque burden vs untreated (words) (TgCRND8 mice [2]; 6 months of age): modest effect on amyloid burden
- mean plaque size (TgCRND8 mice [2]; 4 months of age): 95±4.3 μm^2
- mean plaque size (TgCRND8 mice [2]; 6 months of age): 370±9 μm^2
- astrogliosis/gliosis vs untreated (TgCRND8 mice [8]; 6 months of age): decrease in astrogliosis
- astrogliosis, percent brain area covered (GFAP) (TgCRND8 mice [8]; 6-months of age): 0.388±0.039%
- microglial activation, % brain area (TgCRND8 mice [8]; 6 months): 0.248±0.02%
- vascular amyloid burden vs untreated (words) (TgCRND8 mice [9]): No difference could be detected in the vascular amyloid burden
- cognitive function, treated TgCRND8 mice vs non-Tg littermates (words) (TgCRND8 mice [6]; listed as epi-inositol): almost significantly different
- effect on performance of non-Tg mice (non-Tg littermates): had no effect on the performance of non-Tg mice; also recorded: not effected

SMILES: O=P(O)(O)O[C@@H]1[C@@H](O)[C@H](O)[C@@H](O)[C@H](O)[C@@H]1O [inositol-monophosphate]
- ability to inhibit amyloid-beta peptide fibrillogenesis (amyloid-beta peptide): found not to be effective

SMILES: OC1C(O)C(O)C(O)C(O)C1O (stereo not drawn) [chiro-inositol]
- structural transition from random to β-structure in Aβ42 (Aβ42): epi- and scyllo- but not chiro-inositol were able to induce a structural transition
